Measurements as given in BigSolDB 2.1.

C[N+](C)(C)CC(=O)[O-]
Settings	solubility (mole fraction)
in DMSO, 288.51 K	0.001
in DMSO, 292.73 K	0.00116
in DMSO, 298.34 K	0.00139
in DMSO, 305.16 K	0.00172
in DMSO, 308.53 K	0.0019
in DMSO, 313.2 K	0.00219
in DMSO, 318.16 K	0.00253
in DMSO, 322.88 K	0.00291
in DMSO, 327.87 K	0.00334
in DMSO, 333.58 K	0.00391
in acetic acid, 292.83 K	0.23
in acetic acid, 297.84 K	0.239
in acetic acid, 302.28 K	0.252
in acetic acid, 308.31 K	0.268
in acetic acid, 312.79 K	0.279
in acetic acid, 317.76 K	0.298
in acetic acid, 322.58 K	0.306
in acetic acid, 328.87 K	0.327
in acetic acid, 333.12 K	0.344
in ethylene glycol, 283.42 K	0.102
in ethylene glycol, 288.53 K	0.109
in ethylene glycol, 292.46 K	0.117
in ethylene glycol, 298.03 K	0.125
in ethylene glycol, 303.87 K	0.137
in ethylene glycol, 308.52 K	0.145
in ethylene glycol, 314.59 K	0.161
in ethylene glycol, 318.19 K	0.167
in ethylene glycol, 323.98 K	0.183
in ethylene glycol, 328.33 K	0.192
in isopentanol, 286.47 K	0.000166
in isopentanol, 289.13 K	0.000185
in isopentanol, 293.93 K	0.000225
in isopentanol, 298.25 K	0.000269
in isopentanol, 302.72 K	0.000316
in isopentanol, 307.37 K	0.000378
in isopentanol, 314.06 K	0.000477
in isopentanol, 318.23 K	0.000556
in isopentanol, 322.6 K	0.000646
in n-pentanol, 285.88 K	0.000216
in n-pentanol, 289.5 K	0.000249
in n-pentanol, 294.44 K	0.000301
in n-pentanol, 299.59 K	0.000368
in n-pentanol, 304.38 K	0.000436
in n-pentanol, 309.45 K	0.000523
in n-pentanol, 313.8 K	0.000609
in n-pentanol, 318.18 K	0.000705
in n-pentanol, 323.02 K	0.000822
